Laboratory results from paper PMC7287953, “Potential Therapeutic Targeting of Coronavirus Spike Glycoprotein Priming” (Molecules, 2020).
Where “and” joins values, the source holds several entries; their conditions need not be identical. Equal entries are not always repeated. Where two headings read alike, the source gives them in different places.

What was measured:
furin = biological target: T1, furin (Homo sapiens, UniProt P09958); test: Inhibition of furin activity, fluorescent substrate Pyr-RTKR-AMC; type: biochemical
T1 construct: made in house
T1 sequence (P09958 108-794): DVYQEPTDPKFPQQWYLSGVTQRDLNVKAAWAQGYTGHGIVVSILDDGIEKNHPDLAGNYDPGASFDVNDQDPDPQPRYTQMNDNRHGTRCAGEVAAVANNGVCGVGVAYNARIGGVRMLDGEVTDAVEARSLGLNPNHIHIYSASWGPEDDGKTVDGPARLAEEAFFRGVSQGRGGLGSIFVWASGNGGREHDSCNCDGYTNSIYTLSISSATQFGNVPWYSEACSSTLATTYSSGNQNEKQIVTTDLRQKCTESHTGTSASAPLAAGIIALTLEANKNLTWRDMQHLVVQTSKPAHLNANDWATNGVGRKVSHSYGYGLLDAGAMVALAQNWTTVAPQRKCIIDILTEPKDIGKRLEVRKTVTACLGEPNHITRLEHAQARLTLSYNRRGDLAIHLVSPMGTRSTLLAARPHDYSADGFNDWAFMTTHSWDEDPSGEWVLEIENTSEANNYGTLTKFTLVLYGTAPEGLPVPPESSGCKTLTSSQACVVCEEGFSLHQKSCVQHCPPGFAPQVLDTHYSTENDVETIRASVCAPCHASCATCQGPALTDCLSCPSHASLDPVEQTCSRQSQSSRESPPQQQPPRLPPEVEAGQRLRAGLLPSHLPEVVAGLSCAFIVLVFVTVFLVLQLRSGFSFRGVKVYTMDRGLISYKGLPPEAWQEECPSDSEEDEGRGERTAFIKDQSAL

[1] = test system: SARS-CoV2 surrogate viral particles; conditions: human cells; cited from earlier work
[2] = Toxicity study, I.P. dosing and blood chemistry
anthrax toxin LF/PA = test system: anthrax toxin LF/PA; parameters: species or system Balb/c mice; conditions: mouse, in vivo
physchem = conditions: 25 °C, pH 7.2, aqueous buffer
[3] = test system: RAW 264.7 murine monocyte macrophages; type: cell-based
hPC2 = biological target: T2, hPC2 (Homo sapiens, UniProt P16519); test: Specificity for furin-like PCs: hPC2 inhibition; type: biochemical; conditions: Table S2
T2 sequence (P16519 110-638): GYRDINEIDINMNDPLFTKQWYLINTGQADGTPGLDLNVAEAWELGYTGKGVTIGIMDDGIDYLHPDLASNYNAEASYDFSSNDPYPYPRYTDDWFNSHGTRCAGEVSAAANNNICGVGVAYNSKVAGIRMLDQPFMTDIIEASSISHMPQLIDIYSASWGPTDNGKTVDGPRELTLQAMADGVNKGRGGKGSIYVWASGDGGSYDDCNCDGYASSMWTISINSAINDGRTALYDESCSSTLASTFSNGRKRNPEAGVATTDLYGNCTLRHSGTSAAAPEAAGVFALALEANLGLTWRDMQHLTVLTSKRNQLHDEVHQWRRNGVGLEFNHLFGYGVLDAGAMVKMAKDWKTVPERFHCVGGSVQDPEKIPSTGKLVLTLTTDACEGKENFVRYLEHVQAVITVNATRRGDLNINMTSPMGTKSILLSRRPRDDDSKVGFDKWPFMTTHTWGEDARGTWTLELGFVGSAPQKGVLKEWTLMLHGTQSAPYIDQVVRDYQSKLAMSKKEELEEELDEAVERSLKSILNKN

[4] = mouse, in vivo, 30 mg/kg
hPC1/3 = biological target: T3, hPC1/3 (Homo sapiens, UniProt P29120); test: Inhibition of hPC1/3 activity, fluorescent substrate Pyr-RTKR-AMC; type: biochemical
T3 sequence (P29120 111-753): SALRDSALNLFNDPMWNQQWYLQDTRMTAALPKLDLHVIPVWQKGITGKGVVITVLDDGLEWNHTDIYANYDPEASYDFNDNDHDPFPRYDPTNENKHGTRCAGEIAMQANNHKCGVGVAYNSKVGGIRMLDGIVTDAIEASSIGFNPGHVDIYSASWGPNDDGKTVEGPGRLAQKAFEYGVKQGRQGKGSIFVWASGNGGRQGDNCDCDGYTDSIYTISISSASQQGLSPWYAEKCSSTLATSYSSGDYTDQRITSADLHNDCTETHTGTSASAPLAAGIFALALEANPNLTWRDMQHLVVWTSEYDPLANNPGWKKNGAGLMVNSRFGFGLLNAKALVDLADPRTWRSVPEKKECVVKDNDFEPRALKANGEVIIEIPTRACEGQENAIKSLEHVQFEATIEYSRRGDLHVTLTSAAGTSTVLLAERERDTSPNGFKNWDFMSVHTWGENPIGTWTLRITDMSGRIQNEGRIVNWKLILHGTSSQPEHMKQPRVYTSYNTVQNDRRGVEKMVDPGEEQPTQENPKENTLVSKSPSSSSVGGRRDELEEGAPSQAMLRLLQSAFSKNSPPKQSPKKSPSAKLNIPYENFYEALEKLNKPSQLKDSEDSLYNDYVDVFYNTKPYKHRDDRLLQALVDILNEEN

Plasma stability by LCMS = conditions: rat plasma, after 60 min incubation
in vivo = conditions: mouse
[5] = biological target: T4, trypsin from bovine pancreas (Bos taurus, UniProt P00760); test: Inhibition of trypsin from bovine pancreas; type: biochemical; conditions: at 10 µM; trypsin as model enzyme for TMPRSS2
T4 construct: from tissue; host or cells: bovine pancreas
T4 sequence (P00760 24-246): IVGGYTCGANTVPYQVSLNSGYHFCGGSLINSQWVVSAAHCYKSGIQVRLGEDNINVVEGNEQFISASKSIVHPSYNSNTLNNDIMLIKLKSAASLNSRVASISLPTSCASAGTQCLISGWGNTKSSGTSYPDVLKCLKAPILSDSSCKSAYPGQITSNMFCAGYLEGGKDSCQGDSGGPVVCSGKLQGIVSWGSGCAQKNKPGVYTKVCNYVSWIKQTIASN

hPC7 = biological target: T5, hPC7 (Homo sapiens, UniProt Q16549); test: Specificity for furin-like PCs: hPC7 inhibition; type: biochemical; conditions: Table S2
T5 sequence (Q16549 142-785): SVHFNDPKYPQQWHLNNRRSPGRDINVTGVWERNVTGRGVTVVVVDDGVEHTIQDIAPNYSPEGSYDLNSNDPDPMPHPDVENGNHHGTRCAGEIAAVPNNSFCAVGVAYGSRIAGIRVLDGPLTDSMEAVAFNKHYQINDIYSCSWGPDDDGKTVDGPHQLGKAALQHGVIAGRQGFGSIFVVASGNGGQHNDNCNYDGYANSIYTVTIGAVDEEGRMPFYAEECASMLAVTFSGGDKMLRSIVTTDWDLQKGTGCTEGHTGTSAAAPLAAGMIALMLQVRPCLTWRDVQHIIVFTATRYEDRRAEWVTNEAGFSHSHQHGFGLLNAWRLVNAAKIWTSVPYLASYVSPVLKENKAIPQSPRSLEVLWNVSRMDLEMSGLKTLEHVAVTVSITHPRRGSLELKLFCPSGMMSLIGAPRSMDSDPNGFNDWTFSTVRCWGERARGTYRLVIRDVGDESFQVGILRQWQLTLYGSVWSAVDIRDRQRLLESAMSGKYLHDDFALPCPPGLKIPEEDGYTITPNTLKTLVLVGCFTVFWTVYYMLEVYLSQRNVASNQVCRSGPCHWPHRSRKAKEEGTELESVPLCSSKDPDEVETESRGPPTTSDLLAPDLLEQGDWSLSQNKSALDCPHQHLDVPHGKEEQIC

SMILES: CN(C)C(=O)COC(=O)Cc1ccc(OC(=O)c2ccc(NC(=N)N)cc2)cc1 [camostat]
- inhibition of furin (in words) (furin): poor furin inhibitor
- inhibition of furin (in words) (furin; listed as camostat mesylate): did not appreciably inhibit furin
- concentrations that attenuated (only partially) entry of SARS-CoV2 surrogate viral particles [1]: 10 to 50 µM

SMILES: CC(=O)N[C@@H](CCCNC(=N)N)C(=O)N[C@H](C(=O)N[C@@H](Cc1ccc(N=C(N)N)cc1)C(=O)NCc1ccc(C(=N)N)cc1)C(C)C [compound 1]
- IC50 (furin): 9 nM
- other blood chemistry values ([2]; 5 min after single 20 mg/kg injection): normal
- acute toxicity, blood chemistry finding ([2]; 5 min after single 20 mg/kg injection, compared to control group): gross hemolysis
- MTD ([2]; female, Balb/c, mouse, in vivo, ip): ~10 mg/kg
- mice that died ([2]; single dose 15 mg/kg I.P., 1 h after compound administration): all mice
- mice that died ([2]; single dose 20 mg/kg I.P., 15 min after compound injection): 2 out of 3
- MST (median survival time) (anthrax toxin LF/PA): 31.5 h and 52.5 h
- TTD (time to death) (anthrax toxin LF/PA): 48 h and 96 h
- solubility (physchem): > 1000 µM
- EC50 protection of RAW macrophages from LF/PA-induced cell death [3]: low micromolar range
- IC50 (hPC2): 1860 nM
- absorption after oral administration (in words) [4]: insignificant adsorption
- IC50 (hPC1/3): 3 nM
- plasma stability, intact (Plasma stability by LCMS): > 86%
- bioavailability (in vivo; %F I.P./I.V.): ~100%
- bioavailability (in vivo; %F P.O./I.V.): < 1%
- AUC (in vivo; ip, 3 mg/kg): 2600 ng·h/mL
- AUC (in vivo; iv, 1 mg/kg): 870 ng·h/mL
- AUC (in vivo; po, 30 mg/kg): 26 ng·h/mL
- inhibition of trypsin [5]: can inhibit this enzyme
- IC50 (hPC7): 11800 nM
